pKi: −log10 of the molar value. Activity calls are given as the source filed them. The rule behind the calls is not given here.
Tests used:
Adenosylhomocysteinase = Adenosylhomocysteinase (Homo sapiens, UniProt P23526); experiment: Inhibition of human SAHH
[1] = (§1) Inhibition of Plasmodium falciparum SAHH
Plasmodium falciparum = experiment: as §1

Compound | pKi (Adenosylhomocysteinase) | Kinact (Adenosylhomocysteinase) | pKi [1] | Kinact (Plasmodium falciparum) | Activity (Plasmodium falciparum)
Nc1nc(F)nc2c1ncn2[C@@H]1C[C@H]2O[C@H]2[C@H]1O | 4.69 | 0.133 min⁻¹ | 4.84 | 0.099 min⁻¹ | 
Nc1ncnc2c1ncn2[C@@H]1C[C@H]2O[C@H]2[C@H]1O | 4.91 | 0.552 min⁻¹ |  |  | inactive
Nc1ncnc2c1ncn2C[C@H](O)[C@H](O)C=O |  | 0.09 min⁻¹ |  |  | 

Reference: ChEMBL document CHEMBL1157435, “Synthesis of 3',4'-epoxynoraristeromycin analogs for molecular labeling probe of S-adenosyl-l-homocysteine hydrolase” (Bioorg Med Chem, 2008)
